Source: patent publication US6486151B2, “N-oxides of heterocyclic esters, amides, thioesters, and ketones” (GPI NIL Holdings Inc., priority 1997, dated 2002)
pEC50, pKi: −log10 of the molar value.

Assays:
FKBP12 = FKBP12 (Homo sapiens, UniProt P62942); assay: Ki test procedure: inhibition of peptidyl-prolyl isomerase (rotamase) activity, chymotrypsin-coupled assay; type: biochemical; conditions: FKBP, substrate N-succinyl-Ala-Ala-Pro-Phe-p-nitroanilide; read-out: Ki (apparent Ki, rotamase inhibition)
From the text: As discussed above, the compounds of the present invention have an affinity for the FK506 binding protein, particularly FKBP12. The inhibition of the prolyl peptidyl cis-trans isomerase activity of FKBP may be measured as an indicator of this affinity.
Inhibition of the peptidyl-prolyl isomerase (rotamase) activity of the inventive compounds can be evaluated by known methods described in the literature (Harding, et al., Nature, 1989, 341 :758-760; Holt et al. J. Am. Chem. Soc., 115:9923-91938). The cis-trans isomerization of an alanine-proline bond in a model substrate, N-succinyl-Ala-Ala-Pro-Phe-p-nitroanilide, is monitored spectrophotometrically in a chymotrypsin-coupled assay, which releases para-nitroanilide from the trans form of the substrate. The inhibition of this reaction caused by the addition of different concentrations of inhibitor is determined, and the data is analyzed as a change in first-order rate constant as a function of inhibitor concentration to yield the apparent Ki values. […]
The absorbance at 390 nm versus time is monitored for 90 seconds using a spectrophotometer and the rate constants are determined from the absorbance versus time data files. […]

[1] = test system: MPTP lesioning of dopaminergic neurons in mice; assay: MPTP model of Parkinson's Disease: striatal TH innervation density; type: in vivo; conditions: MPTP 30 mg/kg i.p. 5 days, test compound 4 mg/kg s.c., FIG. 1
Protocol: FIG. 1 is a bar graph showing Protection of Striatal TH Innervation Density from MPTP-toxicity by Concurrent Drug Dosing.
MPTP lesioning of dopaminergic neurons in mice is used as an animal model of Parkinson's Disease. Four week old male CD1 white mice are dosed i.p. with 30 mg/kg of MPTP for 5 days. Test compounds (4 mg/kg), or vehicle, are administered s.c. along with the MPTP for 5 days, as well as for an additional five days following cessation of MPTP treatment. At 18 days following MPTP treatment, the animals are sacrificed and the striata dissected and perfusion-fixed. Immunostaining is performed on sagittal and coronal brain sections using anti-tyrosine hydroxylase […] to quantitative survival and recovery of dopaminergic neurons. In animals treated MPTP and vehicle, a substantial loss of functional dopaminergic terminals is observed as compared to non-lesioned animals. Lesioned animals receiving test compounds show a significant recovery of TH-stained dopaminergic neurons. This model presents quantitation for the recovery of TH-positive dopaminergic neurons in the striatum of animals receiving of animals receiving the compounds of the present invention. Data for representative control and lesioned animals not receiving the test drugs is also presented against the data from the animals receiving the compounds of the present invention. […]

[2] = Liver microsomal assay (model of first pass metabolism); type: in vitro ADME, mouse
Protocol: (§1) In studies to directly asses the rate of metabolism of N-oxides, a mouse liver microsomal assay was used as described below to model first pass metabolism.
Liver microsomes from various species were purchased from a commercial supplier. The microsomes are characterized prior to shipment. The reaction mixture contained microsomes, 5 μM MgCl2, 1 mM NADP, 4 mM glucose-6-phosphate (G-6-P), and 1 unit/4 mL glucose-6-phosphate dehydrogenase (G-6-P DH). The final microsomal protein concentration for all studies was 0.2 mg/mL. Incubations were carried out for 1 hour in a shaking water bath (37° C.). The reaction was terminated by removing an aliquot from the reaction mixture and placing it in a tube with an equal volume of acetonitrile and the bioanalytical internal standard. The results of these experiments are presented as compound half-lives (t1/2) in Table II.

rabbit liver esterase = assay: Esterase activity: degradation by purified rabbit liver esterase; type: in vitro ADME; conditions: for de-esterification by purified esterase (in words): purified esterification enzyme in vitro; for esterase degradation (rate of enzymatic degradation): purified rabbit liver esterase, 0.05 M Tris buffer pH 7.5, 2 hours
Protocol: as §1
Purified rabbit liver esterase was purchased from Sigma. Five (5) units of enzyme were placed in 2 mL of 0.05 M Tris buffer (pH 7.5). Incubations were performed for 2 hours. The reaction was terminated by removing an aliquot from the reaction mixture and placing it in a tube with an equal volume of acetonitrile and the bioanalytical internal standard. The results of these experiments are presented in Table II as rates of enzymatic degradation of the compounds.

[3] = test system: chick dorsal root ganglia; assay: Chick dorsal root ganglion cultures and neurite growth; type: cell-based; conditions: Gallus gallus; chick embryo DRG explants, 48 hours after drug treatment; read-out: ED50 (neurite outgrowth)
Protocol: Dorsal root ganglia were dissected from chick embryos of ten day gestation. Whole ganglion explants were cultured on thin layer Matrigel-coated 12 well plates with Liebovitz L15 plus high glucose media supplemented with 2 mM glutamine and 10% fetal calf serum, and also containing 10 μM cytosine β-D arabinofuranoside (Ara C) at 37° C. in an environment containing 5% CO2. Twenty-four hours later, […] Forty-eight hours after drug treatment, the ganglia were visualized under phase contrast or Hoffman Modulation contrast with a Zeiss Axiovert inverted microscope. Photomicrographs of the explants were made, and neurite outgrowth was quantified. Neurites longer than the DRG diameter were counted as positive, with total number of neurites quantitated per each experimental condition. Three to four DRGs are cultured per well, and each treatment was performed in duplicate.

Sequence of FKBP12 (P62942 whole entry): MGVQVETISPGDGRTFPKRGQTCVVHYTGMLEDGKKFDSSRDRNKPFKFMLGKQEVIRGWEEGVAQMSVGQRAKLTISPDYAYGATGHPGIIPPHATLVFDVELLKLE

Row | half-life ([2]; mouse liver microsomes, 0.2 mg/mL protein, 37° C., 1 hour incubation, read-out: t1/2 (compound half-life in microsomal assay)) | Compound | pKi (FKBP12) | protection / recovery of striatal TH-positive dopaminergic innervation (in words) [1] | half-life compared with parent compound (in words) ([2]; mouse liver microsomal assay) | t1/2 (compound half-life in microsomal assay) ([2]; mouse liver microsomes, 0.2 mg/mL protein, 37° C., 1 hour incubation) | de-esterification by purified esterase (in words) (rabbit liver esterase) | esterase degradation (rate of enzymatic degradation) (rabbit liver esterase) | pEC50 [3]
1 |  | CCC(C)(C)C(=O)C(=O)N1CCC[C@H]1C(=O)OCCCc1ccc[n+]([O-])c1 [Example 1, 3-(3-Pyridyl)-1-propyl (2S)-1-(3,3-Dimethyl-1,2-dioxopentyl) -2-pyrrolidinecarboxylate, N-oxide] | 6.65 | more potent in this in vivo model of neurodegeneration | significantly longer half-life than the parent compound | 42.8 min | limited de-esterification | 367 pmol/min/mg protein | 
2 | 8.1 min | CCC(C)(C)C(=O)C(=O)N1CCC[C@H]1C(=O)OCCCc1cccnc1 [Parent, 3-(3-Pyridyl)-1-propyl (2S)-1-(3,3-Dimethyl-1,2-dioxopentyl)-2-pyrrolidinecarboxylate, reference compound] |  |  |  |  | significant degradation | 7521 pmol/min/mg protein | 10.30
